Results as given in patent US10233177B2, “TRPV1 vanilloid receptor antagonists with a bicyclic portion” (Serentrix LLC, priority 2010, dated 2019).
Like-named read-outs stand apart in the source and are kept apart here.

Target: TRPV1 (Rattus norvegicus (Rat), UniProt O35433)
Assay: Ca2+ fluorescence measurements in cultured rat dorsal root ganglia neurons (capsaicin-induced calcium uptake)
Format: cell-based
Details: for inhibition at 0.3 µM: DRG neuron
[1] = Table 2, formula ID-E, 300 nM against calcium uptake induced by 30 nM capsaicin, rat DRG neurons, read-out: % inhibition at 300 nM
[2] = Table 1, formula IA-C, 300 nM against calcium uptake induced by 30 nM capsaicin, rat DRG neurons, read-out: % inhibition at 300 nM
[3] = 300 nM, rat DRG neurons, read-out: abolition of capsaicin response at 300 nM
[4] = capsaicin-induced calcium uptake, rat DRG neurons, read-out: inhibition of the calcium uptake
[5] = Table 1, against capsaicin-evoked [Ca2+]i mobilization, rat DRG neurons, read-out: IC50
[6] = rat DRG neurons, read-out: IC50 against capsaicin-evoked [Ca2+]i mobilization
[7] = Table 3, formula IF-H, 300 nM against calcium uptake induced by 30 nM capsaicin, rat DRG neurons, read-out: % inhibition at 300 nM

Chain of TRPV1 (O35433 whole entry): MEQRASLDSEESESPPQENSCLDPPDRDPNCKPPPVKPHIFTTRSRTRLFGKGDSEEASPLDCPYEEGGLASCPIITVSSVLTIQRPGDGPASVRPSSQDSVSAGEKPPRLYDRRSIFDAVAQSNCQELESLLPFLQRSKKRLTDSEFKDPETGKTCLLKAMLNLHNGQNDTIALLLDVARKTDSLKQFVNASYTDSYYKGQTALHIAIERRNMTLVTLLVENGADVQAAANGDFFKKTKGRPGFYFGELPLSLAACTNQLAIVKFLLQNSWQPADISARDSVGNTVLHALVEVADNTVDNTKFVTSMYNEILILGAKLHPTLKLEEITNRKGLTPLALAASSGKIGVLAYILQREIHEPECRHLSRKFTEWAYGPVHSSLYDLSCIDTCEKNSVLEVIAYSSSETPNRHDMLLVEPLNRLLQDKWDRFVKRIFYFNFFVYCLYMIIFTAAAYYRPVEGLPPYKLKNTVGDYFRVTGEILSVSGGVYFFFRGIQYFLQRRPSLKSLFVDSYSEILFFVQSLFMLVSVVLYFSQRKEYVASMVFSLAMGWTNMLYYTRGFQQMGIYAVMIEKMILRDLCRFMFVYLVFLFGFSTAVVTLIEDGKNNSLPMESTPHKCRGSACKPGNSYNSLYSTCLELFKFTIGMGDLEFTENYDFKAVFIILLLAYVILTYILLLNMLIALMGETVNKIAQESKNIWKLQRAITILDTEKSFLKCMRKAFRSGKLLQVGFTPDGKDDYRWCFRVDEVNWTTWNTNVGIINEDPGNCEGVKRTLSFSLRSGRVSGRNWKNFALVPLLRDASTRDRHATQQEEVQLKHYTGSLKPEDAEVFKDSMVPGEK

| Compound | inhibition at 0.3 µM [2] | inhibition at 0.3 µM [3] | inhibition at 0.3 µM [4] | IC50 [5] | also measured |
| --- | --- | --- | --- | --- | --- |
| O=C(Cc1ccc(C(F)(F)F)cc1)Nc1cccc2c1NC(=O)CO2 [Example 58, 2-(4-(trifluoromethyl)phenyl)-N-(3,4-dihydro-3-oxo-2H-benzo[b][1,4]oxazin-5-yl)acetamide] | – | – | – | – | inhibition at 0.3 µM [1]: 43% |
| O=C(NCc1ccc(Cl)cc1)Nc1cccc2oc(=O)[nH]c12 [Example 33, 1-(4-chlorobenzyl)-3-(2,3-dihydro-2-oxobenzo[d]oxazol-4-yl)urea] | 16% | – | – | – | – |
| O=C(Cc1ccc(C(F)(F)F)cc1)Nc1cccc2[nH]c(=O)[nH]c12 [Example 55, 2-(4-(trifluoromethyl)phenyl)-N-(2,3-dihydro-2-oxo-1H-benzo[d]imidazol-4-yl)acetamide] | – | – | – | – | inhibition at 0.3 µM [1]: 10% |
| CC(C)(C)c1ccc(CNC(=O)Nc2cccc3[nH]c(=O)[nH]c23)c(N2CCCC2)c1 [Example 75, 1-[(4-tert-butyl-2-pyrrolidin-1-yl-phenyl)methyl]-3-(2-oxo-1,3-dihydrobenzimidazol-4-yl)urea] | 100% | ~100% | > 80% | 0.84 nM | IC50 [6]: 0.84 nM |
| CN(C)c1nc(C(F)(F)F)ccc1CNC(=O)Nc1cccc2c1OCC(=O)N2 [Example 86, 1-[[2-dimethylamino-6-(trifluoromethyl)-3-pyridyl]methyl]-3-(3-oxo-4H-1,4-benzoxazin-8-yl)urea] | 100% | ~100% | > 80% | 17 nM | – |
| O=C(NCc1ccc(F)cc1C(F)(F)F)Nc1cccc2oc(=O)[nH]c12 [Example 27, 1-(4-fluoro-2-(trifluoromethyl)benzyl)-3-(2,3-dihydro-2-oxobenzo[d]oxazol-4-yl)urea] | 45% | – | – | – | – |
| COc1cc(CNC(=O)CCCC/C=C/C(C)C)ccc1O [Capsaicin, capsaicin, reference compound] | – | – | – | – | dorsal root ganglia neurons with increase in [Ca2+] (capsaicin 0.3 μM): 95% |
| CC(C)(C)c1ccc(CNC(=O)Nc2cccc3[nH]c(=O)[nH]c23)cc1 [Example 70, 1-[(4-tert-butylphenyl)methyl]-3-(2-oxo-1,3-dihydrobenzimidazol-4-yl)urea] | 98% | ~100% | > 80% | – | – |
| Cc1ccc(CNC(=O)Nc2cccc3c2OCC(=O)N3)c(N2CCCCC2)c1 [Example 53, 1-(4-methyl-2-(piperidin-1-yl)benzyl)-3-(3,4-dihydro-3-oxo-2H-benzo[b][1,4]oxazin-8-yl)urea] | 90% | ~100% | > 80% | – | – |
| O=C1COc2cccc(C(=O)NCc3ccc(C(F)(F)F)cc3N3CCCCC3)c2N1 [Example 63, N-(4-(trifluoromethyl)-2-(piperidin-1-yl)benzyl)-3,4-dihydro-3-oxo-2H-benzo[b][1,4]oxazine-5-carboxamide] | – | – | – | – | inhibition at 0.3 µM [7]: 79% |
| O=C(NCc1ccc(C(F)(F)F)cc1N1CCOCC1)c1cccc2oc(=O)[nH]c12 [Example 61, N-(4-(trifluoromethyl)-2-morpholinobenzyl)-2,3-dihydro-2-oxobenzo[d]oxazole-4-carboxamide] | – | – | – | – | inhibition at 0.3 µM [7]: 15% |
| CN(C)CCOc1nc(C(F)(F)F)ccc1CNC(=O)Nc1cccc2[nH]c(=O)[nH]c12 [Example 72, 1-[[2-(2-dimethylaminoethoxy)-6-(trifluoromethyl)-3-pyridyl]methyl]-3-(2-oxo-1,3-dihydrobenzimidazol-4-yl)urea] | 40% | – | – | 6 nM | – |
| O=C(NCc1ccc(C(F)(F)F)cc1F)Nc1cccc2[nH]c(=O)[nH]c12 [Example 2, 1-(2-fluoro-4-(trifluoromethyl)benzyl)-3-(2,3-dihydro-2-oxo-1H-benzo[d]imidazol-4-yl)urea] | 28% | – | – | – | – |
| O=C(NCc1ccc(C(F)(F)F)cc1N1CCCC1)Nc1cccc2[nH]c(=O)oc12 [Example 35, 1-(4-(trifluoromethyl)-2-(pyrrolidin-1-yl)benzyl)-3-(2,3-dihydro-2-oxobenzo[d]oxazol-7-yl)urea] | 90% | – | > 80% | – | – |
| CC(C)Oc1cc(C(F)(F)F)ccc1CNC(=O)Nc1cccc2[nH]c(=O)[nH]c12 [Example 67, 1-[[2-isopropoxy-4-(trifluoromethyl)phenyl]methyl]-3-(2-oxo-1,3-dihydrobenzimidazol-4-yl)urea] | 100% | ~100% | > 80% | 20 nM | – |
| O=C(NCc1ccc(C(F)(F)F)nc1N1CCCC1)Nc1cccc2[nH]c(=O)[nH]c12 [Example 39, 1-(2-oxo-1,3-dihydrobenzimidazol-4-yl)-3-[[2-pyrrolidin-1-yl-6-(trifluoromethyl)-3-pyridyl]methyl]urea] | – | – | – | 9.5 nM | abolition of capsaicin response at 300 nM (300 nM, rat DRG neurons): around 100%; % inhibition at 300 nM (Table 1, formula IA-C, 300 nM against calcium uptake induced by 30 nM capsaicin, rat DRG neurons): 98%; inhibition of the calcium uptake (capsaicin-induced calcium uptake, rat DRG neurons): more than 80% |
| O=C1COc2c(cccc2NC(=O)NCc2ccc(Cl)nc2)N1 [Example 54, 1-((6-chloropyridin-3-yl)methyl)-3-(3,4-dihydro-3-oxo-2H-benzo[b][1,4]oxazin-8-yl)urea] | 55% | – | – | – | – |
| O=C1COc2c(cccc2NC(=O)NCc2ccc(C(F)(F)F)nc2N2CCCCC2)N1 [Example 78, 1-(3-oxo-4H-1,4-benzoxazin-8-yl)-3-[[2-(1-piperidyl)-6-(trifluoromethyl)-3-pyridyl]methyl]urea] | 100% | ~100% | > 80% | – | IC50 [6]: 0.61 nM |
| CC(C)(C)c1ccc(CNC(=O)Nc2cccc3c2OCC(=O)N3)cc1 [Example 89, 1-[(4-tert-butylphenyl)methyl]-3-(3-oxo-4H-1,4-benzoxazin-8-yl)urea] | 92% | – | > 80% | 19.8 nM | – |
| O=C(NCc1ccc(C(F)(F)F)cc1N1CCOCC1)Nc1cccc2oc(=O)[nH]c12 [Example 32, 1-(4-(trifluoromethyl)-2-(4-morpholino)benzyl)-3-(2,3-dihydro-2-oxobenzo[d]oxazol-4-yl)urea] | 93% | – | > 80% | – | – |
| O=C1COc2c(cccc2NC(=O)NCc2ccc(C(F)(F)F)nc2N2CCCC2)N1 [Example 87, 1-(3-oxo-4H-1,4-benzoxazin-8-yl)-3-[[2-pyrrolidin-1-yl-6-(trifluoromethyl)-3-pyridyl]methyl]urea] | 100% | ~100% | > 80% | 9 nM | – |
| CN(C)CCOc1cc(C(F)(F)F)ccc1CNC(=O)Nc1cccc2[nH]c(=O)[nH]c12 [Example 73, 1-[[2-(2-dimethylaminoethoxy)-4-(trifluoromethyl)phenyl]methyl]-3-(2-oxo-1,3-dihydrobenzimidazol-4-yl)urea] | 25% | – | – | 1.8 nM | IC50 [6]: 0.1 nM |
| Cc1ccc(CNC(=O)Nc2cccc3c2OCC(=O)N3)c(N2CCCCC2)n1 [Example 80, 1-[[6-methyl-2-(1-piperidyl)-3-pyridyl]methyl]-3-(3-oxo-4H-1,4-benzoxazin-8-yl)urea] | 95% | ~100% | > 80% | – | – |
| Cc1ccc(CNC(=O)Nc2cccc3c2OCC(=O)N3)cc1 [Example 79, 1-(3-oxo-4H-1,4-benzoxazin-8-yl)-3-(p-tolylmethyl)urea] | 54% | – | – | – | – |
| O=C(NCc1ccc(C(F)(F)F)cc1F)Nc1cccc2oc(=O)[nH]c12 [Example 25, 1-(2-fluoro-4-(trifluoromethyl)benzyl)-3-(2,3-dihydro-2-oxobenzo[d]oxazol-4-yl)urea] | 40% | – | – | – | – |
